Test results reported in article PMC3722588 (Journal of the American Chemical Society, 2013).

Target: T184C MMP12 catalytic domain (Mus musculus, UniProt P34960, T184C)
Experiment: Gel labeling of recombinant enzyme spiked in rat liver lysates
Assay type: binding
Conditions: 10 μM pretreatment before TND124, rat liver lysates

Chain of T184C MMP12 catalytic domain (P34960 29-267 T184C): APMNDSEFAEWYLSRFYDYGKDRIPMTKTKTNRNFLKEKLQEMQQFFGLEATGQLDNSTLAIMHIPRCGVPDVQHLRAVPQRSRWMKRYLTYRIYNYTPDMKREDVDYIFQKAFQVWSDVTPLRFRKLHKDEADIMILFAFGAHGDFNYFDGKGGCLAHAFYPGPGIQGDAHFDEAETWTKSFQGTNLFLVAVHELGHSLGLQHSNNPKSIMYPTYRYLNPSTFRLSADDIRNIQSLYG

With `CNC(=O)[C@H](Cc1c[nH]c2ccccc12)NC(=O)[C@@H](CC(=O)NO)CC(C)C` [GM6001] the “Blocking of TND124 labeling by pretreatment” value was “completely blocked labeling”.
